Where a chain is given by its changes, count along the chain named.
Tests used:
[1] = target: T1, RCasp3 (Homo sapiens, UniProt P42574); assay: in vitro fluorogenic Casp3 activity assay (Ac-DEVD-AFC); assay type: biochemical; conditions: 20 nM RCasp3; 1 μM Q-VD-OPh or 0.1 μM bortezomib; Fig. 5c
T1 construct: Active Casp6 and Casp3 represented >99% of the purified enzyme; purchased Enzo Lifesciences
T1 sequence (P42574 29-175 limits assumed): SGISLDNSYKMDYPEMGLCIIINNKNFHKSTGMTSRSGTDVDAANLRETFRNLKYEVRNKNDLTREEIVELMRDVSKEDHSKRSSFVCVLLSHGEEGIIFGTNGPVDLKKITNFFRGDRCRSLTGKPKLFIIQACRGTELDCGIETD
T1 sequence (P42574 176-277 limits assumed): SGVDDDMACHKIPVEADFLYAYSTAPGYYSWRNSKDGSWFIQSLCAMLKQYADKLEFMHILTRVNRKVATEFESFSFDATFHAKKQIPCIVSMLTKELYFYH

[2] = target: T2, caspase-like activity of the proteasome (Mus musculus, UniProt Q60692); assay: proteasome assay (Ac-nLPnLD-AMC); assay type: biochemical; conditions: mouse liver protein extracts, 0.1 μM bortezomib; supplementary Fig. S2
T2 construct: nLPnLDase activity in mouse liver protein extracts; from tissue; host or cells: mouse liver protein extracts
T2 sequence (Q60692 1-238): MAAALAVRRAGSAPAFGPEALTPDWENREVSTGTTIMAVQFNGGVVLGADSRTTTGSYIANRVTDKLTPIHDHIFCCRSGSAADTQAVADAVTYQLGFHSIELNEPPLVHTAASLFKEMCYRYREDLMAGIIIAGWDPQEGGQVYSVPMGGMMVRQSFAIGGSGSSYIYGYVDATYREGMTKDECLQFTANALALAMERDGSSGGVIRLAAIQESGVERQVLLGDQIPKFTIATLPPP
Method: The caspase-like activity of the proteasome was measured using 10 μM Ac-Nle-Pro-Nle-Asp-AMC (Ac-nLPnLD-AMC, Enzo Lifesciences) as described for caspase activity assays except for the use of 10 mM DTT and a 7-amino-4-methylcoumarin (AMC, Sigma-Aldrich) standard curves. Mouse liver protein extracts were treated with 0.1 μM of epoxomicin (Enzo Lifesciences), bortezomib, 1 μM of Q-VD-OPh, or equal volumes of DMSO for 20 mins on ice before measuring proteasome or caspase activities. […]
equated at 100% activity of the enzyme. Activity assays for recombinant Casp3 was done similarly to recombinant Casp6, except the substrate used was Ac-Asp-Glu-Val-Asp-7-Amino-4-trifluoromethylcouramin (Ac-DEVD-AFC: Enzo Life Sciences, NY, USA).
Proteasome assay: The caspase-like activity of the proteasome was measured using the substrate Ac-Nle-Pro-Nle-Asp-AMC (Enzo LifeSciences, NY, USA) at a final concentration of 10 µM in Stennicke’s buffer in the presence of 10 mM DTT. […]
Statistical Analysis: For Caspase-3 activity assays, data represent the mean ± SEM of 3 livers from 3 animals and was analyzed using a one-way ANOVA with Dunnett’s post hoc test (*** p < 0.001 in DMSO, and ### p < 0.001 in bortezomib) comparing all samples to LPS/GALN-treated mice in the absence of methylene blue, while proteasome assays were analyzed using […]

[3] = target: T3, DEVDase activity in mouse liver protein extracts (Mus musculus, UniProt P70677); assay: DEVDase activity in mouse liver protein extracts with added inhibitors; assay type: biochemical; conditions: inhibitor added to extracts: 1 μM Q-VD-OPh, 0.1 μM bortezomib or 0.1 μM epoxomicin
T3 construct: Casp3 activity was assessed in liver protein extracts from mice; from tissue; host or cells: mouse liver (C57BL6/J), protein extracts
T3 sequence (P70677 29-175 limits assumed): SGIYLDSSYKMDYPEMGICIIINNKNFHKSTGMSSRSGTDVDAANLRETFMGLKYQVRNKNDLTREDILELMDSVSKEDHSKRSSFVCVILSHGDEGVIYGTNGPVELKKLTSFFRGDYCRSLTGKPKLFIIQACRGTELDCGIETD
T3 sequence (P70677 176-277 limits assumed): T1 sequence (P42574 176-277 limits assumed) with V3T, D5E, D6E, H10Q, A46S, Q50L, D53H, F77L, A79S
Method: (§1) Activity assays for RCasp1 (Biovision, Millpitas, CA, USA) and RCasp3 (Enzo Lifesciences) used Z-Tyr-Val-Ala-Asp-7-Amino-4-trifluoromethylcoumarin (z-YVAD-AFC: Enzo LifeSciences,), and Ac-Asp-Glu-Val-Asp-7-Amino-4-trifluoromethylcouramin (Ac-DEVD-AFC: Enzo LifeSciences), respectively. To confirm that these substrates report caspase activity and not proteasomal caspase-like enzyme activity, 1 μM pan-caspase inhibitor, Q-VD-OPh (Sigma-Aldrich) or 0.1 μM proteasome inhibitor, bortezomib (Calbiochem, MA, USA) were tested on 20 nM RCasp3 or 40–60 μg of mouse liver protein extracts.
The caspase-like activity of the proteasome was measured using 10 μM Ac-Nle-Pro-Nle-Asp-AMC (Ac-nLPnLD-AMC, Enzo Lifesciences) as described for caspase activity assays except for the use of 10 mM DTT and a 7-amino-4-methylcoumarin (AMC, Sigma-Aldrich) standard curves. Mouse liver protein extracts were treated with 0.1 μM of epoxomicin (Enzo Lifesciences), bortezomib, 1 μM of Q-VD-OPh, or equal volumes of DMSO for 20 mins on ice before measuring proteasome or caspase activities.

[4] = target: T4, RCasp6 (Homo sapiens, UniProt P55212); assay: in vitro fluorogenic Casp6 activity assay (Ac-VEID-AFC); assay type: biochemical; conditions: 10 μM DTT; Fig. 1c
T4 construct: The zymogen is cleaved at three distinct sites to remove the prodomain and linker regions in order to obtain an active enzyme; His tag (C); made in house; host or cells: E. coli BL21 (DE3)pLysS
T4 sequence (P55212 24-179 limits assumed): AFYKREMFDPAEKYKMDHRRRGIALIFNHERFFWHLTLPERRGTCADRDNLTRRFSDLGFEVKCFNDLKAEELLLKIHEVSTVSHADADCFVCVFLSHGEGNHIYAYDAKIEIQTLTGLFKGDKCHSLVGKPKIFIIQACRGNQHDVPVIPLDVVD
T4 sequence (P55212 194-293 limits assumed): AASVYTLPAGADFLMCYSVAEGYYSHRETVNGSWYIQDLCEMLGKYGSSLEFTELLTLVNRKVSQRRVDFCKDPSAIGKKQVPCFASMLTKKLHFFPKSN

[5] = target: T4, RCasp6; assay: in vitro tubulin cleavage assay with RCasp6; assay type: biochemical; conditions: 20 nM RCasp6, 10 μM DTT, 10 hours, western blot densitometry; read-out: IC50, cleavage of tubulin by RCasp6 (Tub∆Casp6 relative to total tubulin)
Method: Phenothiazines were mixed with 20 nM RCasp6 or RCasp3, 10 μM DTT, and 7.5 nM BSA in SB and 36 μg HCT116 protein extracts added before incubation at 37 °C for 10 hours, western blotting, and densitometry for tubulin-cleaved by Casp6 (Tub∆Casp6) and total tubulin as described in the western blot section. The IC50 was determined by a non-linear regression fit for log inhibitor vs caspase activity with a Hill slope of −1 using GraphPad Prism 5.0.
(§2) The 10630 (1:10,000) and GN60622 (1:10,000) neoepitope antibodies against the p20 subunit of active Casp6[16] and Tub∆Casp6[23], respectively, were generated in our laboratory. The β-actin clone AC-15 (1:5000, Sigma-Aldrich), Casp6 p10 clone B93-4 (1:250, BD Canada, Mississauga, ON, CA), Casp3, and full-length α-tubulin (1:1000, Cell Signaling Technology Inc., Danvers, MA, USA) antibodies were diluted in 5% non-fat dry milk in Tris-buffered saline containing 0.1% Tween-20 (Sigma-Aldrich). […] Secondary anti-mouse conjugated to alkaline phosphatase (Jackson Immunoresearch Laboratories Inc., West Grove, PA) was developed with nitro-blue tetrazolium (ThermoSci) and 5-bromo-4-chloro-3′-indolyphosphate (ThermoSci).

[6] = target: T4, RCasp6; assay: inhibitor kinetic studies (Michaelis-Menten / Lineweaver-Burk) on RCasp6; assay type: biochemical; conditions: for mode of inhibition: Lineweaver Burk plot, Km increasing, Vmax the same; for Ki: competitive inhibition model, nonlinear regression, Ac-VEID-AFC substrate, 10 nM RCasp6
[7] = test system: HCT116 cells; assay: cell viability (microscopy and MTT) in HCT116 cells; assay type: cell-based, human; conditions: 2 hours; for concentration at which cells retained morphology and confluence comparable to PBS-treated controls: HCT116, phase contrast microscopy
Method: (§3) HCT116 cells, plated at a density of 1 × 10^5 cells/well and human neurons, plated at a density of 6 × 10^6 cells/well on poly-L-lysine were treated with PBS or phenothiazines for 2 hours. The media was replaced before acquiring images with the Nikon Eclipse Ti microscope and the NIS-Elements (Version 3.10) software. MTT assays: Cells were plated in 96-well plates at 1 × 10^4 or 1 × 10^5 cells per well for 24 hours before treatments with phenothiazines or PBS. After 2 hours, fresh media containing […] MTT (3-(4,5-dimethylthiazol-2-yl)-2,5-diphenyltetrazolium bromide) (Sigma-Aldrich) was added and the cells were incubated for 4 hours at 37 °C in 5% CO2. The media was removed, formazan crystals were dissolved in DMSO, and the absorbance was measured at 560 nm and 670 nm using the BioTek Synergy H4 plate reader.

[8] = test system: human primary neurons; assay: cell viability (microscopy) in human primary neurons; assay type: cell-based; conditions: phase contrast microscopy, 2 hours
Method: as §3

[9] = target: T5, Casp6 (Homo sapiens, UniProt P55212); assay: Casp6 activity in serum-deprived human primary neuron cultures; assay type: cell-based; design: endogenous in cells; host or cells: human primary neurons from fetal brain cortex; conditions: serum-deprived neurons, 2 hrs, 100 μM methylene blue, 50 μM azure A, 10 μM azure B; for Tub∆Casp6/Tub levels: vs PBS-treated serum-deprived neurons
T5 sequence (P55212 24-179 limits assumed): T4 sequence (P55212 24-179 limits assumed)
T5 sequence (P55212 194-293 limits assumed): T4 sequence (P55212 194-293 limits assumed)

[10] = target: T5, Casp6; assay: Casp6 activity in Casp6p20p10-transfected HCT116 cells; assay type: cell-based; design: for active Casp6p20 subunit (p20), full length Casp6 lacking its pro-domain; Casp6p20p10 (p20p10); expressed in transfected cells; host or cells: HCT116 human colon carcinoma cells; conditions: transfected HCT116, 2 hrs; 100 μM and 1 mM methylene blue, 50 μM azure A, 10 μM and 100 μM azure B
Method: as §1
Human colon carcinoma (HCT116) cells, cultured as recommended (ATCC: Manassas, VA, USA), were transfected with 1 μg pCep4βCasp6p20p10 and 8 μg polyethyleneimine (Polysciences Inc., Warrington, PA, USA), and grown 24 hrs before treatment with PBS and phenothiazines for 2 hours. Human primary neurons were cultured from fetal brain cortical areas obtained under ethical guidelines and approved by the McGill University’s institutional review board as previously described. Human primary neurons plated in poly-L-lysine -coated 6-well plates at a density of 3 × 10^6 cells/mL were serum-deprived for 2 hours in the presence of phenothiazines or an equivalent volume of PBS. Proteins were harvested in cell lysis buffer (CLB; 50mM HEPES, 0.1% CHAPS, 0.1mM EDTA).
as §2

[11] = target: T6, catalytic Cys163 of Casp6 (Homo sapiens, UniProt P55212); assay: LC/MS/MS analysis of Casp6 Cys163 oxidation; conditions: RCasp6 treated with 2 mM compound, 45 min, 37 °C
T6 construct: The zymogen is cleaved at three distinct sites to remove the prodomain and linker regions in order to obtain an active enzyme; His tag (C); made in house; host or cells: E. coli BL21 (DE3)pLysS
T6 sequence (P55212 24-179 limits assumed): T4 sequence (P55212 24-179 limits assumed)
T6 sequence (P55212 194-293 limits assumed): T4 sequence (P55212 194-293 limits assumed)

Row | SMILES | RCasp3 activity in vitro [1] | DEVDase activity in LPS/GALN-treated mouse liver protein extracts [3] | inhibition of Casp6 activity [4] | IC50 [5] | mode of inhibition [6] | Ki [6] | concentration at which cells retained morphology and confluence comparable to PBS-treated controls [7] | concentration above which cell body size and axonal fragmentation increased [8] | VEIDase activity [9] | Tub∆Casp6/Tub levels [9] | Casp6 activity on the Ac-VEID-AFC peptide substrate [10] | other results
1 | CC(C)C[C@H](NC(=O)[C@H](Cc1ccccc1)NC(=O)c1cnccn1)B(O)O [bortezomib] | did not inhibit | – | – | – | – | – | – | – | – | – | – | nLPnLDase proteasomal activity [2]: significantly inhibited
2 | CC[C@H](C)[C@H](NC(=O)[C@H]([C@@H](C)CC)N(C)C(C)=O)C(=O)N[C@H](C(=O)N[C@@H](CC(C)C)C(=O)[C@@]1(C)CO1)[C@@H](C)O [epoxomicin] | – | nor was Casp3 DEVDase activity affected | – | – | – | – | – | – | – | – | – | –
3 | CN(C)c1ccc2nc3ccc(N)cc3[s+]c2c1 [azure A, (7-aminophenothiazin-3-ylidene)-dimethylazanium;chloride] | – | – | inhibited Casp6 activity in a dose dependent manner | 0.5 µM | competitive | 0.42 µM | 50 μM | above 50 μM | significantly inhibited | significantly decreased | trend towards inhibition but it did not reach statistical significance | concentration necessary for a significant inhibition of Casp6 activity [4]: 10 nM; concentration above which toxicity was shown ([7]; HCT116, MTT assay): above 50 μM
4 | CC(C)[C@H](NC(=O)c1ccc2ccccc2n1)C(=O)N[C@@H](CC(=O)O)C(=O)COc1c(F)cccc1F [Q-VD-OPh] | abrogated | abrogated | – | – | – | – | – | – | – | – | – | –
5 | CNc1ccc2nc3ccc(N(C)C)cc3[s+]c2c1 [azure B, dimethyl-[7-(methylamino)phenothiazin-3-ylidene]azanium;chloride] | – | – | inhibited Casp6 activity in a dose dependent manner | 34.4 µM | competitive | 7.89 µM | 100 μM | > 10 µM | significantly inhibited | significantly decreased | significantly inhibited | concentration at which reduction in Casp6 activity was observed [4]: 100 pM; concentration up to which well tolerated ([7]; HCT116, MTT assay): up to 100 μM; sequenced peptides containing oxidized Cys163 [11]: 7.7%

From publication PMC4585840 (Scientific Reports, 2015)
